Experimental data reported in patent US20080214551A1, “Treatment of Burns” (AQ+ PLC, priority 2004, published 2008).

For `Oc1cccc2cccnc12` [8-hydroxyquinoline], the “solubility in aqueous solution” value was “generally insoluble or only poorly soluble”.
